Patent publication US11053204B2, “Pyrimidinyloxy benzene derivatives as herbicides” (FMC Corporation, priority 2015, dated 2021)

Experiments:
Assay in all cases: Test C postemergence, plant response rating
Assay type in all cases: in vivo
[1] = tested on: wheat (winter wheat, Triticum aestivum); settings: Triticum aestivum, post-emergence
Outline: (§1)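 After sowing in loam–sand blend or silt loam, pots were sprayed preemergence; separately grown 1- to 4-leaf plants were sprayed postemergence. Following 13 to 15 d under greenhouse conditions, injury was rated visually on a 0 to 100 scale.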

[2] = tested on: lambsquarters (Chenopodium album); settings: Chenopodium album, post-emergence
Outline: as §1

[3] = tested on: galium (catchweed bedstraw, Galium aparine); settings: Galium, post-emergence
Outline: as §1

kochia (Kochia scoparia) = settings: Bassia scoparia, post-emergence
Outline: as §1

[4] = tested on: oat, wild (wild oat Avena fatua); settings: Avena fatua, post-emergence
Outline: as §1

[5] = tested on: oilseed rape (Brassica napus); settings: Brassica napus, post-emergence
Outline: as §1

[6] = tested on: velvetleaf (Abutilon theophrasti); settings: Abutilon theophrasti, post-emergence
Outline: as §1

[7] = tested on: nutsedge, yellow (yellow nutsedge, Cyperus esculentus); settings: Cyperus, post-emergence
Outline: as §1

[8] = tested on: blackgrass (Alopecurus myosuroides); settings: Alopecurus myosuroides, post-emergence
Outline: as §1

corn (Zea mays) = settings: Zea mays, post-emergence
Outline: as §1

[9] = tested on: crabgrass, large (large crabgrass, Digitaria sanguinalis); settings: Digitaria sanguinalis, post-emergence
Outline: as §1

[10] = tested on: ragweed (common ragweed, Ambrosia elatior); settings: Ambrosia artemisiifolia, post-emergence
Outline: as §1

soybean (Glycine max) = settings: Glycine max, post-emergence
Outline: as §1

[11] = tested on: waterhemp (common waterhemp, Amaranthus rudis); settings: for Plant response rating, Waterhemp: scale 0 to 100; for Waterhemp plant response rating: scale 0 to 100 (0 no effect, 100 complete control)
Outline: as §1

[12] = tested on: barnyardgrass (Echinochloa crus-galli); settings: Echinochloa crus-galli, post-emergence
Outline: as §1

[13] = tested on: ryegrass, Italian (Italian ryegrass, Lolium multiflorum); settings: Lolium multiflorum, post-emergence
Outline: as §1

[14] = 125 g ai/ha, scale 0 to 100 (0 no effect, 100 complete control)
[15] = 62 g ai/ha, scale 0 to 100 (0 no effect, 100 complete control)

O=C(OCC(F)(F)C(F)(F)F)c1c(Br)cccc1Oc1ncc(Cl)cn1 [Compound 23, 2,2,3,3,3-pentafluoropropyl 2-bromo-6-[(5-chloro-2-pyrimidinyl)oxy]benzoate]
plant injury at 16 g/ha ([1]; 16 g ai/ha, scale 0 to 100): 0%
plant injury at 31 g/ha ([1]; 31 g ai/ha, scale 0 to 100): 0%
plant injury at 62 g/ha ([1]; 62 g ai/ha, scale 0 to 100 (0 no effect, 100 complete control), read-out: Wheat plant response rating): 0%
plant injury at 125 g/ha [1, 14]: 0%
pest or weed control at 16 g/ha ([2]; 16 g ai/ha, scale 0 to 100): 25%
pest or weed control at 31 g/ha ([2]; 31 g ai/ha, scale 0 to 100): 55%
pest or weed control at 62 g/ha [2, 15]: 65%
pest or weed control at 125 g/ha [2, 14]: 80%
pest or weed control at 16 g/ha ([3]; 16 g ai/ha, scale 0 to 100): 50%
pest or weed control at 31 g/ha ([3]; 31 g ai/ha, scale 0 to 100): 55%
pest or weed control at 62 g/ha [3, 15]: 55%
pest or weed control at 125 g/ha [3, 14]: 80%
pest or weed control at 16 g/ha (kochia (Kochia scoparia); 16 g ai/ha, scale 0 to 100): 5%
pest or weed control at 31 g/ha (kochia (Kochia scoparia); 31 g ai/ha, scale 0 to 100): 50%
pest or weed control at 62 g/ha (kochia (Kochia scoparia); [15]): 55%
pest or weed control at 125 g/ha (kochia (Kochia scoparia); [14]): 85%
pest or weed control at 16 g/ha ([4]; 16 g ai/ha, scale 0 to 100): 5%
pest or weed control at 31 g/ha ([4]; 31 g ai/ha, scale 0 to 100): 5%
pest or weed control at 62 g/ha [4, 15]: 10%
pest or weed control at 125 g/ha [4, 14]: 5%
plant injury at 16 g/ha ([5]; 16 g ai/ha, scale 0 to 100): 5%
plant injury at 31 g/ha ([5]; 31 g ai/ha, scale 0 to 100): 5%
plant injury at 62 g/ha [5, 15]: 50%
plant injury at 125 g/ha [5, 14]: 35%
pest or weed control at 16 g/ha ([6]; 16 g ai/ha, scale 0 to 100): 10%
pest or weed control at 31 g/ha ([6]; 31 g ai/ha, scale 0 to 100): 35%
pest or weed control at 62 g/ha ([6]; 62 g ai/ha, scale 0 to 100 (0 no effect, 100 complete control), read-out: Velvetleaf plant response rating): 35%
pest or weed control at 125 g/ha [6, 14]: 40%
pest or weed control at 16 g/ha ([7]; 16 g ai/ha, scale 0 to 100): 0%
pest or weed control at 31 g/ha ([7]; 31 g ai/ha, scale 0 to 100): 0%
pest or weed control at 62 g/ha [7, 15]: 5%
pest or weed control at 125 g/ha [7, 14]: 10%
pest or weed control at 16 g/ha ([8]; 16 g ai/ha, scale 0 to 100): 0%
pest or weed control at 31 g/ha ([8]; 31 g ai/ha, scale 0 to 100): 5%
pest or weed control at 62 g/ha [8, 15]: 15%
pest or weed control at 125 g/ha [8, 14]: 20%
Corn plant response rating (crop injury, 0 = no effect, 100 = complete kill) at 16 g/ha (corn (Zea mays); 16 g ai/ha, scale 0 to 100): 5%
Corn plant response rating (crop injury, 0 = no effect, 100 = complete kill) at 31 g/ha (corn (Zea mays); 31 g ai/ha, scale 0 to 100): 5%
plant injury at 62 g/ha (corn (Zea mays); [15]): 5%
plant injury at 125 g/ha (corn (Zea mays); [14]): 10%
pest or weed control at 16 g/ha ([9]; 16 g ai/ha, scale 0 to 100): 10%
pest or weed control at 31 g/ha ([9]; 31 g ai/ha, scale 0 to 100): 10%
pest or weed control at 62 g/ha [9, 15]: 20%
pest or weed control at 125 g/ha [9, 14]: 25%
pest or weed control at 16 g/ha ([10]; 16 g ai/ha, scale 0 to 100): 15%
pest or weed control at 31 g/ha ([10]; 31 g ai/ha, scale 0 to 100): 35%
pest or weed control at 62 g/ha [10, 15]: 40%
pest or weed control at 125 g/ha [10, 14]: 50%
plant injury at 16 g/ha (soybean (Glycine max); 16 g ai/ha, scale 0 to 100): 20%
plant injury at 31 g/ha (soybean (Glycine max); 31 g ai/ha, scale 0 to 100): 30%
plant injury at 62 g/ha (soybean (Glycine max); [15]): 70%
plant injury at 125 g/ha (soybean (Glycine max); [14]): 35%
Plant response rating, Waterhemp ([11]; 16 g ai/ha): 80
Plant response rating, Waterhemp ([11]; 31 g ai/ha): 90
Waterhemp plant response rating ([11]; 62 g ai/ha): 85
Waterhemp plant response rating ([11]; 125 g ai/ha): 95
pest or weed control at 16 g/ha ([12]; 16 g ai/ha, scale 0 to 100): 10%
pest or weed control at 31 g/ha ([12]; 31 g ai/ha, scale 0 to 100): 10%
pest or weed control at 62 g/ha [12, 15]: 10%
pest or weed control at 125 g/ha [12, 14]: 20%
pest or weed control at 16 g/ha ([13]; 16 g ai/ha, scale 0 to 100): 0%
pest or weed control at 31 g/ha ([13]; 31 g ai/ha, scale 0 to 100): 0%
pest or weed control at 62 g/ha [13, 15]: 5%
pest or weed control at 125 g/ha [13, 14]: 5%
